Results as given in ChEMBL document CHEMBL2073977, “Endotoxin downregulates rat hepatic ntcp gene expression via decreased activity of critical transcription factors” (J Clin Invest, 1998).

Columns and labels:
[1] = target: T1, Hepatic sodium/bile acid cotransporter (Rattus norvegicus, UniProt P26435); experiment: TP_TRANSPORTER: Western in vivo, liver of SD rat; format: functional, organism-based, Sprague-Dawley
T1 sequence (P26435 whole entry): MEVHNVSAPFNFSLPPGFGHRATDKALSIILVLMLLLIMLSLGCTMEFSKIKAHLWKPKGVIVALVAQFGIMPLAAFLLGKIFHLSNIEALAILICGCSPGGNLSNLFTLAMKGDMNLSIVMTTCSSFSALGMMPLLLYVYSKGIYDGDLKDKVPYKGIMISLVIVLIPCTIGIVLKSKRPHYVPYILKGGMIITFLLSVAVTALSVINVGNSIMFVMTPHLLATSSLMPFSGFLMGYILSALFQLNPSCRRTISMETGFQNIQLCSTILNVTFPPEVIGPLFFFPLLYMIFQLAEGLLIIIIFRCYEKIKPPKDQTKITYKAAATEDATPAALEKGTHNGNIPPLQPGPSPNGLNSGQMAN

[2] = target: T1, Hepatic sodium/bile acid cotransporter; experiment: TP_TRANSPORTER: Northern blot in vivo, liver of SD rat; format: functional, organism-based, Sprague-Dawley

Structure (SMILES): CCCCCCCCCCCCCC(=O)OC(CCCCCCCCCCC)CC(=O)OC1C(NC(=O)CC(CCCCCCCCCCC)OC(=O)CCCCCCCCCCC)C(OC2CC(OC(=O)CC(O)CCCCCCCCCCC)C(NC(=O)CC(O)CCCCCCCCCCC)C(O)O2)OC(CO)C1OP(=O)(O)O (configuration not stated)
- Activity [1]: inducer [Decrease]
- Activity [2]: inducer [Decrease]
